Reference: patent publication US20250122174A1 (Shenzhen Yuanli Shenwan Innovative Medicine Co., Ltd., priority 2022, published 2025)

Each molecule was assayed against HPK1 (Homo sapiens (Human), UniProt Q92918) (assay: HPK1 Inhibition Assay (ADP-Glo kinase assay)). Settings: ATP 10 μM.
Type: biochemical
In short: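 ADP-Glo luminescence read-out after 1 h room-temperature kinase reaction with 10 μM ATP and 0.1 μg/ml MBP. Recombinant human HPK1 at 7.5 ng/μl; buffer 40 mM Tris pH 7.5, 20 mM MgCl2. Compounds serially diluted 5-fold over 10 points from 10 mM DMSO stock.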

HPK1, sequence (Q92918 1-346 limits assumed): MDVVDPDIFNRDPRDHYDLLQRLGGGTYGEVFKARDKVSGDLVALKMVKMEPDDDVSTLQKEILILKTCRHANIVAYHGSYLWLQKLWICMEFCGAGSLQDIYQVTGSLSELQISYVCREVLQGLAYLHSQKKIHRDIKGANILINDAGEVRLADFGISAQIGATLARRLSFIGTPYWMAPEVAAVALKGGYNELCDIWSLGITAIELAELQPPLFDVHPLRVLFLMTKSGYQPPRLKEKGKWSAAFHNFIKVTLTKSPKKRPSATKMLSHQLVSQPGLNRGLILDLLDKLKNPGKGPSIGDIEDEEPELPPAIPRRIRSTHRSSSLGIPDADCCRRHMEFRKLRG

IC50, < 100 nM:
CC[C@@]1(N)CCN(c2c(NC(=O)c3ccc(=O)n(-c4c(F)cccc4F)n3)ccc3c2nc(C(C)C)n3C)C1 [Example 121, (R)-N-(4-(3-amino-3-ethylpyrrolidin-1-yl)-2-isopropyl-1-methyl-1H-benzo[d]imidazol-5-yl)-1-(2,6-difluorophenyl)-6-oxo-1,6-dihydropyridazine-3-carboxamide]
CC[C@]1(N)CCN(c2c(NC(=O)c3ccc(=O)n(-c4c(F)cccc4F)n3)ccc3c2nc(C(C)C)n3C)C1 [Example 122, (S)-N-(4-(3-amino-3-ethylpyrrolidin-1-yl)-2-isopropyl-1-methyl-1H-benzo[d]imidazol-5-yl)-1-(2,6-difluorophenyl)-6-oxo-1,6-dihydropyridazine-3-carboxamide]
CC(C)c1nc2c(N3CC[C@@](C)(N)C3)c(NC(=O)c3ccc(=O)n(-c4c(F)cccc4F)n3)ccc2n1C [Example 123, (R)-N-(4-(3-amino-3-methylpyrrolidin-1-yl)-2-isopropyl-1-methyl-1H-benzo[d]imidazol-5-yl)-1-(2,6-difluorophenyl)-6-oxo-1,6-dihydropyridazine-3-carboxamide]
CC(C)c1nc2c(N3CC[C@@H](N(C)C)C3)c(NC(=O)c3ccc(=O)n(-c4c(F)cccc4F)n3)ccc2n1C [Example 126, (R)-1-(2,6-difluorophenyl)-N-(4-(3-(dimethylamino)pyrrolidin-1-yl)-2-isopropyl-1-methyl-1H-benzo[d]imidazol-5-yl)-6-oxo-1,6-dihydropyridazine-3-carboxamide]
CN[C@@H]1CCN(c2c(NC(=O)c3ccc(=O)n(-c4c(F)cccc4F)n3)ccc3c2nc(C(C)C)n3C)C1 [Example 127, (R)-1-(2,6-difluorophenyl)-N-(2-isopropyl-1-methyl-4-(3-(methylamino)pyrrolidin-1-yl)-1H-benzo[d]imidazol-5-yl)-6-oxo-1,6-dihydropyridazine-3-carboxamide]
CC(C)c1nc2c(N3CC[C@@H](NC(=O)CCN)C3)c(NC(=O)c3ccc(=O)n(-c4c(F)cccc4F)n3)ccc2n1C [Example 128, (R)-N-(4-(3-(3-aminopropanamido)pyrrolidin-1-yl)-2-isopropyl-1-methyl-1H-benzo[d]imidazol-5-yl)-1-(2,6-difluorophenyl)-6-oxo-1,6-dihydropyridazine-3-carboxamide]
CC(C)c1nc2c(N3CC[C@@H](NCC(C)(C)O)C3)c(NC(=O)c3ccc(=O)n(-c4c(F)cccc4F)n3)ccc2n1C [Example 129, (R)-1-(2,6-difluorophenyl)-N-(4-(3-((2-hydroxy-2-methylpropyl)amino)pyrrolidin-1-yl)-2-isopropyl-1-methyl-1H-benzo[d]imidazol-5-yl)-6-oxo-1,6-dihydropyridazine-3-carboxamide]
CC(C)c1nc2c(N3CC[C@@H](NCCO)C3)c(NC(=O)c3ccc(=O)n(-c4c(F)cccc4F)n3)ccc2n1C [Example 130, (R)-1-(2,6-difluorophenyl)-N-(4-(3-((2-hydroxyethyl)amino)pyrrolidin-1-yl)-2-isopropyl-1-methyl-1H-benzo[d]imidazol-5-yl)-6-oxo-1,6-dihydropyridazine-3-carboxamide]
CC(C)c1nc2c(N3CC[C@@H](NC(=O)CN)C3)c(NC(=O)c3ccc(=O)n(-c4c(F)cccc4F)n3)ccc2n1C [Example 131, (R)-N-(4-(3-(2-aminoacetamido)pyrrolidin-1-yl)-2-isopropyl-1-methyl-1H-benzo[d]imidazol-5-yl)-1-(2,6-difluorophenyl)-6-oxo-1,6-dihydropyridazine-3-carboxamide]
CC(C)c1nc2c(N3CC[C@H](N)C3)c(NC(=O)c3ccc(=O)n(-c4c(F)cccc4F)n3)ccc2n1C [Example 132, (S)-N-(4-(3-aminopyrrolidin-1-yl)-2-isopropyl-1-methyl-1H-benzo[d]imidazol-5-yl)-1-(2,6-difluorophenyl)-6-oxo-1,6-dihydropyridazine-3-carboxamide]
CC(C)c1nc2c(N3CCC(N)CC3)c(NC(=O)c3ccc(=O)n(-c4c(F)cccc4F)n3)ccc2n1C [Example 133, N-(4-(4-aminopiperidin-1-yl)-2-isopropyl-1-methyl-1H-benzo[d]imidazol-5-yl)-1-(2,6-difluorophenyl)-6-oxo-1,6-dihydropyridazine-3-carboxamide]
CC(C)c1nc2c(N3CCC[C@H]3CN)c(NC(=O)c3ccc(=O)n(-c4c(F)cccc4F)n3)ccc2n1C [Example 134, (S)-N-(4-(2-(aminomethyl)pyrrolidin-1-yl)-2-isopropyl-1-methyl-1H-benzo[d]imidazol-5-yl)-1-(2,6-difluorophenyl)-6-oxo-1,6-dihydropyridazine-3-carboxamide]
CC(C)c1nc2c(N3CCC4(CCNC4)C3)c(NC(=O)c3ccc(=O)n(-c4c(F)cccc4F)n3)ccc2n1C (stereo not drawn) [Example 136, 1-(2,6-difluorophenyl)-N-(2-isopropyl-1-methyl-4-(2,7-diazaspiro[4.4]nonan-2-yl)-1H-benzo[d]imidazol-5-yl)-6-oxo-1,6-dihydropyridazine-3-carboxamide]
CC(C)c1nc2c(N3C[C@H]4CNC[C@H]4C3)c(NC(=O)c3ccc(=O)n(-c4c(F)cccc4F)n3)ccc2n1C [Example 137, 1-(2,6-difluorophenyl)-N-(4-((3aR,6aS)-hexahydropyrrolo[3,4-c]pyrrol-2(1H)-yl)-2-isopropyl-1-methyl-1H-benzo[d]imidazol-5-yl)-6-oxo-1,6-dihydropyridazine-3-carboxamide]
CC(C)c1nc2c(N3CC[C@@](C)(O)C3)c(NC(=O)c3ccc(=O)n(-c4c(F)cccc4F)n3)ccc2n1C [Example 140, (R)-1-(2,6-difluorophenyl)-N-(4-(3-hydroxy-3-methylpyrrolidin-1-yl)-2-isopropyl-1-methyl-1H-benzo[d]imidazol-5-yl)-6-oxo-1,6-dihydropyridazine-3-carboxamide]
CC(C)c1nc2c(N3CC(F)(F)C[C@H]3CN)c(NC(=O)c3ccc(=O)n(-c4c(F)cccc4F)n3)ccc2n1C [Example 141, (S)-N-(4-(2-(aminomethyl)-4,4-difluoropyrrolidin-1-yl)-2-isopropyl-1-methyl-1H-benzo[d]imidazol-5-yl)-1-(2,6-difluorophenyl)-6-oxo-1,6-dihydropyridazine-3-carboxamide]
CC(C)c1nc2c(N3CC(N)C(O)C3)c(NC(=O)c3ccc(=O)n(-c4c(F)cccc4F)n3)ccc2n1C (stereo not drawn) [Example 142, N-(4-(3-amino-4-hydroxypyrrolidin-1-yl)-2-isopropyl-1-methyl-1H-benzo[d]imidazol-5-yl)-1-(2,6-difluorophenyl)-6-oxo-1,6-dihydropyridazine-3-carboxamide]
CC(C)c1nc2c(N3CC[C@@H](N)C3)c(NC(=O)c3ccc(=O)n(-c4c(F)cccc4F)n3)cc(F)c2n1C [Example 143, (R)—N-(4-(3-aminopyrrolidin-1-yl)-7-fluoro-2-isopropyl-1-methyl-1H-benzo[d]imidazol-5-yl)-1-(2,6-difluorophenyl)-6-oxo-1,6-dihydropyridazine-3-carboxamide]
CC(C)c1nc2c(N3CC(F)(F)C[C@H]3CN)c(NC(=O)c3ccc(=O)n(-c4c(F)cccc4F)n3)cc(F)c2n1C [Example 144, (S)-N-(4-(2-(aminomethyl)-4,4-difluoropyrrolidin-1-yl)-7-fluoro-2-isopropyl-1-methyl-1H-benzo[d]imidazol-5-yl)-1-(2,6-difluorophenyl)-6-oxo-1,6-dihydropyridazine-3-carboxamide]
CC(C)c1nc2c(N3C[C@@H]4[C@H](N)[C@@H]4C3)c(NC(=O)c3ccc(=O)n(-c4c(F)cccc4F)n3)cc(F)c2n1C [Example 145, N-(4-((1R,5S,6r)-6-amino-3-azabicyclo[3.1.0]hexane-3-yl)-7-fluoro-2-isopropyl-1-methyl-1H-benzo[d]imidazol-5-yl)-1-(2,6-difluorophenyl)-6-oxo-1,6-dihydropyridazine-3-carboxamide]
Cn1c(C2(C(F)(F)F)CC2)nc2c(N3CC[C@@H](N)C3)c(NC(=O)c3ccc(=O)n(-c4c(F)cccc4F)n3)ccc21 [Example 146, (R)—N-(4-(3-aminopyrrolidin-1-yl)-1-methyl-2-(1-(trifluoromethyl)cyclopropyl)-1H-benzo[d]imidazol-5-yl)-1-(2,6-difluorophenyl)-6-oxo-1,6-dihydropyridazine-3-carboxamide]
Cn1c(C2(C(F)(F)F)CC2)nc2c(N3C[C@H](N)C(C)(C)C3)c(NC(=O)c3ccc(=O)n(-c4c(F)cccc4F)n3)ccc21 [Example 147, (R)-N-(4-(4-amino-3,3-dimethylpyrrolidin-1-yl)-1-methyl-2-(1-(trifluoromethyl)cyclopropyl)-1H-benzo[d]imidazol-5-yl)-1-(2,6-difluorophenyl)-6-oxo-1,6-dihydropyridazine-3-carboxamide]
C[C@@H]1CN(c2c(NC(=O)c3ccc(=O)n(-c4c(F)cccc4F)n3)ccc3c2nc(C2(C(F)(F)F)CC2)n3C)C[C@@H]1N [Example 148, N-(4-((3R,4R)-3-amino-4-methylpyrrolidin-1-yl)-1-methyl-2-(1-(trifluoromethyl)cyclopropyl)-1H-benzo[d]imidazol-5-yl)-1-(2,6-difluorophenyl)-6-oxo-1,6-dihydropyridazine-3-carboxamide]
Cn1c(C2(C(F)(F)F)CC2)nc2c(N3C[C@H](N)C4(CC4)C3)c(NC(=O)c3ccc(=O)n(-c4c(F)cccc4F)n3)ccc21 [Example 149, (R)-N-(4-(7-amino-5-azaspiro[2.4]heptan-5-yl)-1-methyl-2-(1-(trifluoromethyl)cyclopropyl)-1H-benzo[d]imidazol-5-yl)-1-(2,6-difluorophenyl)-6-oxo-1,6-dihydropyridazine-3-carboxamide]
